# Measured values taken from paper PMC4819940 (Cancer Chemotherapy and Pharmacology, 2016).
# Where two headings read alike, the source gives them in different places.
# Key:
# [1] = Plasma pharmacokinetics of AZD5363 after a single dose and multiple doses; assay type: in vivo, human; conditions: for AUC / Cmax / Vd/F / C ss,max: geometric mean (CV%); for Tmax / t ss,max / t half: median (range); for Vd/F: read-out: V ss/F
# Description: […] area under the plasma concentration–time curve (AUC), maximum plasma (peak) drug concentration (Cmax), time to reach Cmax (tmax), apparent plasma clearance (CL/F), and oral volume of distribution at steady state (Vss/F).
# [2] = test system: Western patients with advanced solid malignancies; parameters: method as in earlier work; conditions: 4/3 dosing schedule; cited from earlier work
# [3] = human, plasma, oral, single dose, 80 mg bid continuous cohort, n=3
# [4] = human, plasma, oral, single dose, 240 mg bid continuous cohort, n=7
# [5] = human, plasma, oral, single dose, 320 mg bid continuous cohort, n=6
# [6] = human, plasma, oral, single dose, 360 mg bid intermittent 4/3 cohort, n=8
# [7] = human, plasma, oral, single dose, 400 mg bid continuous cohort, n=5
# [8] = human, plasma, oral, single dose, 480 mg bid intermittent 4/3 cohort, n=6
# [9] = human, plasma, oral, single dose, 640 mg bid intermittent 2/5 cohort, n=6
# [10] = human, plasma, oral, single dose, Total, n=41
# [11] = multiple doses, 80 mg bid continuous, n=3
# [12] = multiple doses, 240 mg bid continuous, n=7
# [13] = multiple doses, 320 mg bid continuous, n=4
# [14] = multiple doses, 360 mg bid intermittent 4/3, n=7
# [15] = multiple doses, 400 mg bid continuous, n=4
# [16] = multiple doses, 480 mg bid intermittent 4/3, n=6
# [17] = multiple doses, 640 mg bid intermittent 2/5, n=6
smiles,measurement,setting,value
NC1(C(=O)N[C@@H](CCO)c2ccc(Cl)cc2)CCN(c2ncnc3[nH]ccc23)CC1 [AZD5363],AUC,"[1]; human, plasma, oral, multiple doses, Total, n=37, read-out: AUCss",6820 ng·h/mL
same,Tmax,"[1]; human, plasma, oral, single dose, all cohorts, read-out: tmax",1.98 h
same,Cmax,[1]; [3],217 ng/mL
same,Vd/F,[1]; [3],715 L
same,Tmax,"[1]; human, plasma, oral, single dose, 80 mg bid continuous cohort, n=3, read-out: t max",2 h
same,Cmax,[1]; [4],628 ng/mL
same,Vd/F,[1]; [4],682 L
same,Tmax,"[1]; human, plasma, oral, single dose, 240 mg bid continuous cohort, n=7, read-out: t max",1.9 h
same,Cmax,[1]; [5],1580 ng/mL
same,Vd/F,[1]; [5],370 L
same,Tmax,"[1]; human, plasma, oral, single dose, 320 mg bid continuous cohort, n=6, read-out: t max",1.98 h
same,Cmax,[1]; [6],1010 ng/mL
same,Vd/F,[1]; [6],681 L
same,Tmax,"[1]; human, plasma, oral, single dose, 360 mg bid intermittent 4/3 cohort, n=8, read-out: t max",1.99 h
same,Cmax,[1]; [7],1060 ng/mL
same,Vd/F,[1]; [7],777 L
same,Tmax,"[1]; human, plasma, oral, single dose, 400 mg bid continuous cohort, n=5, read-out: t max",1.97 h
same,Cmax,[1]; [8],1910 ng/mL
same,Vd/F,[1]; [8],502 L
same,Tmax,"[1]; human, plasma, oral, single dose, 480 mg bid intermittent 4/3 cohort, n=6, read-out: t max",1.02 h
same,Cmax,[1]; [9],2100 ng/mL
same,Vd/F,[1]; [9],587 L
same,Tmax,"[1]; human, plasma, oral, single dose, 640 mg bid intermittent 2/5 cohort, n=6, read-out: t max",2.02 h
same,Cmax,[1]; [10],1090 ng/mL
same,AUC,"[1]; human, plasma, oral, single dose, Total, n=41, read-out: AUC",5180 ng·h/mL
same,Vd/F,[1]; [10],595 L
same,half-life,"[1]; human, plasma, single oral doses",~10 h
same,"C ss,max",[1]; [11],318.3 (128.4) ng/mL
same,"t ss,max",[1]; [11],1 (0.98‒1.97) hours
same,"C ss,max",[1]; [12],874.4 (89.7) ng/mL
same,"t ss,max",[1]; [12],1.98 (0.97‒3.9) hours
same,"C ss,max",[1]; [13],1222 (53.7) ng/mL
same,"t ss,max",[1]; [13],1.465 (0.92‒2.12) hours
same,"C ss,max",[1]; [14],1366 (64.9) ng/mL
same,"t ss,max",[1]; [14],0.98 (0.5‒2) hours
same,"C ss,max",[1]; [15],2094 (56.6) ng/mL
same,"t ss,max",[1]; [15],2 (0.93‒2) hours
same,"C ss,max",[1]; [16],2670 (36.7) ng/mL
same,"t ss,max",[1]; [16],1.99 (1‒2.05) hours
same,"C ss,max",[1]; [17],2618 (20.0) ng/mL
same,"t ss,max",[1]; [17],2.01 (2‒3.97) hours
same,"C ss,max","[1]; multiple doses, Total, n=37",1430 (96.6) ng/mL
same,"t ss,max","[1]; multiple doses, Total, n=37",1.98 (0.5‒3.97) hours
same,"t ss,max","[1]; multiple dosing, all cohorts",1.98 (0.50–3.97) hours
same,dose proportionality of exposure,"[1]; single and multiple doses, 80- to 640-mg doses",generally dose proportional
same,t half,"[1]; single dose, 80 mg bid continuous cohort, n=3",11.8 (8.5‒12.2) hours
same,t half,"[1]; single dose, 240 mg bid continuous cohort, n=7",10.2 (8.2‒10.9) hours
same,t half,"[1]; single dose, 320 mg bid continuous cohort, n=6",9.7 (7.3‒10.6) hours
same,t half,"[1]; single dose, 360 mg bid intermittent 4/3 cohort, n=8",9.7 (5.3‒11.1) hours
same,t half,"[1]; single dose, 400 mg bid continuous cohort, n=5",9.6 (9.0‒13.0) hours
same,t half,"[1]; single dose, 480 mg bid intermittent 4/3 cohort, n=6",9.3 (8.1‒11.6) hours
same,t half,"[1]; single dose, 640 mg bid intermittent 2/5 cohort, n=6",10.1 (9.4‒13.7) hours
same,Tmax,"[1]; single dose, Total, n=41",1.98 (0.87‒4.02) hours
same,t half,"[1]; single dose, Total, n=41",9.9 (5.3‒13.7) hours
same,duration of distribution phase following Cmax,"[1]; single oral doses, generally lasting up to",6 to 8 h
same,recommended dose for AZD5363 monotherapy,[2],480 mg bid
